Measured values taken from patent publication US20240270720A1, “INDAZOLE YL BENZIMIDAZOLE DERIVATIVE OR PHARMACEUTICALLY ACCEPTABLE SALT THEREOF, AND USE THEREOF” (INDUSTRY-UNIVERSITY COOPERATION FOUNDATION HANYANG …, priority 2021, published 2024).
Where a chain is given by its changes, count along the chain named. Like-named read-outs stand apart in the source and are kept apart here.

Assays:
FLT3 wild type = molecular target: T1, FLT3 wild type (Homo sapiens, UniProt P36888); test: Kinase HotSpot radiometric kinase assay (Reaction Biology); assay type: biochemical; details: Table 1; read-out: FLT3 IC50
T1 construct: purchased Reaction Biology Corp. (Kinase HotSpot service)
T1 sequence (P36888 27-993): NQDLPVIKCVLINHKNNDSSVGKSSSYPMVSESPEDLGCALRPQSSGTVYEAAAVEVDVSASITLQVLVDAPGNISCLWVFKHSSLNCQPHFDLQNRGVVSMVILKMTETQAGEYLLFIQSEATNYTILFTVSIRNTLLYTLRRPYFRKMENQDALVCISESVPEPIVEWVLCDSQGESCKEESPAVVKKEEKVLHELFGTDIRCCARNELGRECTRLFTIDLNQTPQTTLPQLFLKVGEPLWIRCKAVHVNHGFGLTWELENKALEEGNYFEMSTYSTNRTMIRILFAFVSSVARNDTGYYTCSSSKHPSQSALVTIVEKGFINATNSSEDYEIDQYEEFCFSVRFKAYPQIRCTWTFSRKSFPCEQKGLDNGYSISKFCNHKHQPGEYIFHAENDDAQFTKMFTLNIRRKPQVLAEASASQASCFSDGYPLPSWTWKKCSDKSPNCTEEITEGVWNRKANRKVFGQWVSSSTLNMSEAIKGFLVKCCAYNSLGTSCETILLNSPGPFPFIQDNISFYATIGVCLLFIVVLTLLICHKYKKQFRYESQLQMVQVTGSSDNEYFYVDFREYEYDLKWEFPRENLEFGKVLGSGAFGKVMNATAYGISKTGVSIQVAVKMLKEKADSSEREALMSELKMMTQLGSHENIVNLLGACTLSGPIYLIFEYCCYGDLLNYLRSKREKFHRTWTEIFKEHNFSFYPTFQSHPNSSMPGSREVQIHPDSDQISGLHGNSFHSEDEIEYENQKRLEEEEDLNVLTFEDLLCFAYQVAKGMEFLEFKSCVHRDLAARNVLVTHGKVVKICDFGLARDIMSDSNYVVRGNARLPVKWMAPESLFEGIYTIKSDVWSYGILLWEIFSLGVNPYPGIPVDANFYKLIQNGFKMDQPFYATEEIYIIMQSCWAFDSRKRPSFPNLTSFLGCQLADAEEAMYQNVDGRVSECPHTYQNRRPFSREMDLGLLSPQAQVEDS
Experimental: (§1) Reaction Biology Corp. Kinase HotSpot SM service (www.reactionbiology.com) was used to determine IC50 values for all compounds and kinase profiles. The analysis protocol was as follows: In a final reaction volume of 25 μL, a peptide substrate, [[sequence]], 5 μM, ATP 10 μM, and FLT3(h) (5 to 10 mU) were incubated with 25 mM Tris pH 7.5, 0.02 mM EGTA, 0.66 mg/mL myelin basic protein, 10 mM Mg acetate and [γ-33P-ATP] (a concentration of approximately 500 cpm/pmol was required for specific activity). The reaction was initiated by adding the Mg-ATP mixture. After incubation at room temperature for 40 minutes, the reaction was stopped by adding 5 μL of a 3% phosphoric acid solution. Thereafter, 10 μL of the reactant was spotted on a P30 filter mat and washed three times for 5 minutes in 75 mM phosphoric acid and once in methanol before drying and scintillation counting.

FLT3 (D835Y) = molecular target: T2, FLT3 (D835Y) (Homo sapiens, UniProt P36888, D835Y); test: Kinase HotSpot radiometric kinase assay (Reaction Biology)
T2 sequence (P36888 27-993 D835Y): T1 sequence (P36888 27-993) with D809Y
Experimental: as §1

[1] = read-out: FLT3 (D835Y) IC50, Table 1

Row | SMILES | IC50 (FLT3 wild type) | melting point | IC50 (FLT3 (D835Y); [1]) | IC50 (FLT3 (D835Y))
1 | Cc1cn(-c2cc(C(=O)Nc3ccc4[nH]c(-c5ccc6cn[nH]c6c5)nc4c3)cc(C(F)(F)F)c2)cn1 [Compound 8b, N-(2-(1H-indazol-6-yl)-1H-benzo[di]imidazol-5-yl)-3-(4-methyl-1H-imidazol-1-yl)-5-(trifluoromethyl)benzamide] | 639 nM | 239 to 241 °C | 110 nM | –
2 | Cc1nccn1-c1cc(C(=O)Nc2ccc3[nH]c(-c4ccc5cn[nH]c5c4)nc3c2)cc(C(F)(F)F)c1 [Compound 8c, N-(2-(1H-indazol-6-yl)-1H-benzo[di]imidazol-5-yl)-3-(2-methyl-1H-imidazol-1-yl)-5-(trifluoromethyl)benzamide] | 470 nM | 251 to 253 °C | – | –
3 | CN1CCN(c2ccc(C(=O)Nc3ccc4[nH]c(-c5ccc6cn[nH]c6c5)nc4c3)cc2C(F)(F)F)CC1 [Compound 8e, N-(2-(1H-indazol-6-yl)-1H-benzo[di]imidazol-5-yl)-4-(4-methylpiperazin-1-yl)-3-(trifluoromethyl)benzamide] | 154 nM | 160 to 161 °C | 44 nM | –
4 | O=C(Nc1ccc2[nH]c(-c3ccc4cn[nH]c4c3)nc2c1)c1ccc(N2CCOCC2)c(C(F)(F)F)c1 [Compound 8f, N-(2-(1H-indazol-6-yl)-1H-benzo[di]imidazol-5-yl)-4-morpholino-3-(trifluoromethyl)benzamide] | 2510 nM | 202 to 204 °C | 370 nM | –
5 | O=C(Nc1ccc2[nH]c(-c3ccc4cn[nH]c4c3)nc2c1)c1cnn(-c2ccccc2)c1C(F)(F)F [Compound 8g, N-(2-(1H-indazol-6-yl)-1H-benzo[di]imidazol-5-yl)-1-phenyl-5-(trifluoromethyl)-1H-pyrazole-4-carboxamide] | 1100 nM | 258 to 260 °C | – | –
6 | CC(C)(C)c1cc(C(=O)Nc2ccc3[nH]c(-c4ccc5cn[nH]c5c4)nc3c2)no1 [Compound 8h, N-(2-(1H-indazol-6-yl)-1H-benzo[di]imidazol-5-yl)-5-(tert-butyl)isoxazole-3-carboxamide] | ~700 nM | 147 to 149 °C | – | 32 nM
7 | COc1ccc(/C=C/C(=O)Nc2ccc3[nH]c(-c4ccc5cn[nH]c5c4)nc3c2)cc1 [Compound 8k, (E)-N-(2-(1H-indazol-6-yl)-1H-benzo[di]imidazol-5-yl)-3-(4-methoxyphenyl)acrylamide] | 761 nM | 206 to 208 °C | – | –
8 | CC(C)(C)c1cc(NC(=O)Nc2ccc3[nH]c(-c4ccc5cn[nH]c5c4)nc3c2)no1 [Compound 8l, 1-(2-(1H-indazol-6-yl)-1H-benzo[di]imidazol-5-yl)-3-(5-(tert-butyl)isoxazol-3-yl)urea] | 1170 nM | 184 to 186 °C | – | –
9 | O=C(Nc1ccc(Cl)c(Cl)c1)Nc1ccc2[nH]c(-c3ccc4cn[nH]c4c3)nc2c1 [Compound 8m, 1-(2-(1H-indazol-6-yl)-1H-benzo[di]imidazol-5-yl)-3-(3,4-dichlorophenyl)urea] | 3080 nM | 144 to 146 °C | – | ~1000 nM
10 | CCN(CC)C1CCN(c2cc(C(=O)Nc3ccc4[nH]c(-c5ccc6cn[nH]c6c5)nc4c3)cc(C(F)(F)F)c2)C1 (centres unmarked) [Compound 8o, N-(2-(1H-indazol-6-yl)-1H-benzo[di]imidazol-5-yl)-3-(3-(diethylamino)pyrrolidin-1-yl)-5-(trifluoromethyl)benzamide] | 841 nM | 221 to 223 °C | 120 nM | –
11 | CCN1CCN(Cc2ccc(C(=O)Nc3ccc4[nH]c(-c5ccc6cn[nH]c6c5)nc4c3)cc2C(F)(F)F)CC1 [Compound 8w, N-(2-(1H-indazol-6-yl)-1H-benzo[di]imidazol-5-yl)-4-((4-ethylpiperazin-1-yl)methyl)-3-(trifluoromethyl)benzamide] | 290 nM | 164 to 166 °C | – | –

Next, values leading:

Row | IC50 (FLT3 wild type) | melting point | IC50 (FLT3 (D835Y); [1]) | IC50 (FLT3 (D835Y)) | SMILES
12 | 181 nM | 228 to 230 °C | 21 nM | – | CN1CCN(c2cc(C(=O)Nc3ccc4[nH]c(-c5ccc6cn[nH]c6c5)nc4c3)cc(C(F)(F)F)c2)CC1 [Compound 8a, N-(2-(1H-indazol-6-yl)-1H-benzo[di]imidazol-5-yl)-3-(4-methylpiperazin-1-yl)-5-(trifluoromethyl)benzamide]
13 | 1030 nM | 195 to 196 °C | 151 nM | – | O=C(Nc1ccc2[nH]c(-c3ccc4cn[nH]c4c3)nc2c1)c1cc(N2CCOCC2)cc(C(F)(F)F)c1 [Compound 8d, N-(2-(1H-indazol-6-yl)-1H-benzo[di]imidazol-5-yl)-3-morpholino-5-(trifluoromethyl)benzamide]
14 | 287 nM | 283 to 285 °C | – | – | CN(C)C1CCN(c2cc(C(=O)Nc3ccc4[nH]c(-c5ccc6cn[nH]c6c5)nc4c3)cc(C(F)(F)F)c2)C1 (centres unmarked) [Compound 8n, N-(2-(1H-indazol-6-yl)-1H-benzo[di]imidazol-5-yl)-3-(3-(dimethylamino)pyrrolidin-1-yl)-5-(trifluoromethyl)benzamide]
15 | 523 nM | 150 to 152 °C | – | – | O=C(Nc1ccc2[nH]c(-c3ccc4cn[nH]c4c3)nc2c1)c1cc(CN2CCN(C3CC3)CC2)cc(C(F)(F)F)c1 [Compound 8q, N-(2-(1H-indazol-6-yl)-1H-benzo[di]imidazol-5-yl)-3-((4-cyclopropylpiperazin-1-yl)methyl)-5-(trifluoromethyl)benzamide]
16 | – | 175 to 177 °C | – | – | CN1CCC(Nc2cc(C(=O)Nc3ccc4[nH]c(-c5ccc6cn[nH]c6c5)nc4c3)cc(C(F)(F)F)c2)CC1 [Compound 8s, N-(2-(1H-indazol-6-yl)-1H-benzo[di]imidazol-5-yl)-3-((1-methylpiperidin-4-yl)amino)-5-(trifluoromethyl)benzamide]
17 | – | 293 to 295 °C | 55 nM | – | CN1CCC(Oc2cc(C(=O)Nc3ccc4[nH]c(-c5ccc6cn[nH]c6c5)nc4c3)cc(C(F)(F)F)c2)CC1 [Compound 8u, N-(2-(1H-indazol-6-yl)-1H-benzo[di]imidazol-5-yl)-3-((1-methylpiperidin-4-yl)oxy)-5-(trifluoromethyl)benzamide]
18 | – | 213 to 214 °C | – | – | CN1CCC[C@@H](Nc2cc(C(=O)Nc3ccc4[nH]c(-c5ccc6cn[nH]c6c5)nc4c3)cc(C(F)(F)F)c2)C1 [Compound 8v, N-(2-(1H-indazol-6-yl)-1H-benzo[di]imidazol-5-yl)-3-((1-methylpiperidin-3-yl)amino)-5-(trifluoromethyl)benzamide]
19 | 743 nM | 293 to 295 °C | – | – | CN1CCC(Oc2ccc(C(=O)Nc3ccc4[nH]c(-c5ccc6cn[nH]c6c5)nc4c3)cc2C(F)(F)F)CC1 [Compound 8x, N-(2-(1H-indazol-6-yl)-1H-benzo[di]imidazol-5-yl)-4-((1-methylpiperidin-4-yl)oxy)-3-(trifluoromethyl)benzamide]
